Experimental data published in ChEMBL document CHEMBL1128380, “Antimalarial activity of novel ring-contracted artemisinin derivatives” (1995).

How the values were obtained:
Type in all cases: functional
Mus musculus [1] = assay: Antimalarial activity was determined by blood schizonticidal activity in mice (Mus musculus) infected with Plasmodium berghei K173 at 5 (mg/kg x5) subcutaneous dosage; Cured/treated = 4/6 on day 7
Mus musculus [2] = assay: Antimalarial activity was determined by Blood schizonticidal activity in mice (Mus musculus) infected with Plasmodium berghei K173 at 25 (mg/kgx5) subcutaneous dosage; Cured/treated = 4/4
Mus musculus [3] = assay: Antimalarial activity was determined by blood schizonticidal activity in mice (Mus musculus) infected with Plasmodium berghei K173 at 10 (mg/kgx5) subcutaneous dosage; Cured/treated = 0/6 on day 7
Mus musculus [4] = assay: Antimalarial activity was determined by Blood schizonticidal activity in mice (Mus musculus) infected with Plasmodium berghei NS at 5 (mg/kg x5) subcutaneous dosage; Cured/treated = 10/10
Mus musculus [5] = assay: Antimalarial activity was determined by blood schizonticidal activity in mice (Mus musculus) infected with Plasmodium berghei K173 at 25 (mg/kgx5) peroral dosage; Cured/treated = 0/6
Mus musculus [6] = assay: Antimalarial activity was determined by Blood schizonticidal activity in mice (Mus musculus) infected with Plasmodium berghei K173 at 2.5 (mg/kgx5) subcutaneous dosage; Cured/treated = 0/6 on day 7
Mus musculus [7] = assay: Antimalarial activity was determined by Blood schizonticidal activity in mice (Mus musculus) infected with Plasmodium berghei K173 at 0.625 (mg/kg x5) subcutaneous dosage; Cured/treated = 14/19 on day 7
Mus musculus [8] = assay: Antimalarial activity was determined by blood schizonticidal activity in mice (Mus musculus) infected with Plasmodium berghei K173 at 10 (mg/kgx5) peroral dosage; Cured/treated = 0/6 on day 7
Mus musculus [9] = assay: Antimalarial activity was determined by Blood schizonticidal activity in mice (Mus musculus) infected with Plasmodium berghei NS at 2.5 (mg/kgx5) subcutaneous dosage; Cured/treated = 11/14
Mus musculus [10] = assay: Antimalarial activity was determined by Blood schizonticidal activity in mice (Mus musculus) infected with Plasmodium berghei K173 at 1.25 (mg/kgx5) subcutaneous dosage; Cured/treated = 30/30 on day 7
Mus musculus [11] = assay: Antimalarial activity was determined by Blood schizonticidal activity in mice (Mus musculus) infected with Plasmodium berghei NS at 7.5 (mg/kg x5) peroral dosage; Cured/treated = 8/8
Mus musculus [12] = assay: Antimalarial activity was determined by Blood schizonticidal activity in mice (Mus musculus) infected with Plasmodium berghei NS at 25 (mg/kgx5) peroral dosage; Cured/treated = 0/6
Mus musculus [13] = assay: Antimalarial activity was determined by Blood schizonticidal activity in mice (Mus musculus) infected with Plasmodium berghei K173 at 20 (mg/kg x5) peroral dosage; Cured/treated = 4/12 on day 7
Mus musculus [14] = assay: Antimalarial activity was determined by Blood schizonticidal activity in mice (Mus musculus) infected with Plasmodium berghei K173 at 25 (mg/kgx5) peroral dosage; Cured/treated = 10/12 on day 7
Mus musculus [15] = assay: Antimalarial activity was determined by blood schizonticidal activity in mice (Mus musculus) infected with Plasmodium berghei NS at 5 (mg/kg x5) subcutaneous dosage; Cured/treated = 19/20 on day 7
Mus musculus [16] = assay: Antimalarial activity was determined by Blood schizonticidal activity in mice (Mus musculus) infected with Plasmodium berghei NS at 2.5 (mg/kgx5) subcutaneous dosage; Cured/treated = 6/6
Mus musculus [17] = assay: Antimalarial activity was determined by Blood schizonticidal activity in mice (Mus musculus) infected with Plasmodium berghei K173 at 12.5 (mg/kg x5) peroral dosage; Cured/treated = 3/6 on day 7
Mus musculus [18] = assay: Antimalarial activity was determined by blood schizonticidal activity in mice (Mus musculus) infected with Plasmodium berghei K173 at 25 (mg/kgx5) peroral dosage; Cured/treated = 6/6 on day 7
Mus musculus [19] = assay: Antimalarial activity was determined by Blood schizonticidal activity in mice (Mus musculus) infected with Plasmodium berghei NS at 25 (mg/kgx5) peroral dosage; Cured/treated = 6/6
Mus musculus [20] = assay: Antimalarial activity was determined by Blood schizonticidal activity in mice (Mus musculus) infected with Plasmodium berghei K173 at 0.625 (mg/kg x5) subcutaneous dosage; Cured/treated = 6/6 on day 7
Mus musculus [21] = assay: Antimalarial activity was determined by blood schizonticidal activity in mice (Mus musculus) infected with Plasmodium berghei NS at 12.5 (mg/kg x5) peroral dosage; Cured/treated = 2/6
Mus musculus [22] = assay: Antimalarial activity was determined by Blood schizonticidal activity in mice (Mus musculus) infected with Plasmodium berghei K173 at 20 (mg/kg x5) peroral dosage; Cured/treated = 34/34
Mus musculus [23] = assay: Antimalarial activity was determined by Blood schizonticidal activity in mice (Mus musculus) infected with Plasmodium berghei K173 at 2.5 (mg/kgx5) subcutaneous dosage; Cured/treated = 36/36
Mus musculus [24] = assay: Antimalarial activity was determined by blood schizonticidal activity in mice (Mus musculus) infected with Plasmodium berghei K173 at 1.25 (mg/kgx5) subcutaneous dosage; Cured/treated = 23/35 on day 7
Mus musculus [25] = assay: Antimalarial activity was determined by blood schizonticidal activity in mice (Mus musculus) infected with Plasmodium berghei NS at 25 (mg/kgx5) peroral dosage; Cured/treated = 7/12 on day 7
Mus musculus [26] = assay: Antimalarial activity was determined by blood schizonticidal activity in mice (Mus musculus) infected with Plasmodium berghei NS at 5 (mg/kg x5) subcutaneous dosage; Cured/treated = 16/18 on day 7

Compound: C[C@@H]1CC[C@@H]2[C@]34OO[C@@](C)(CCC13)O[C@H]4O[C@]2(C)C(=O)NCc1ccc(C(F)(F)F)cc1 (stereo partly specified)
- Cured/treated (Mus musculus [1]): 4

Compound: C[C@@H]1CCC2[C@]34OOC(C)(CCC13)O[C@H]4O[C@]2(C)C=O (single isomer, unassigned)
- Cured/treated (Mus musculus [2]): 4
- Cured/treated (Mus musculus [3]): 0

Compound: C=CCOC[C@@]1(C)O[C@@H]2OC3(C)CCC4[C@H](C)CC[C@@H]1[C@]42OO3 (single isomer, unassigned)
- Cured/treated (Mus musculus [4]): 10
- Cured/treated (Mus musculus [5]): 0
- Cured/treated (Mus musculus [6]): 0

Compound: C[C@H]1[C@@H](OC[C@]2(C)OC3OC4(C)CCC5[C@@H](C)CCC2[C@]35OO4)O[C@@H]2OC3(C)CCC4[C@H](C)CC[C@@H]1[C@]42OO3 (single isomer, unassigned)
- Cured/treated (Mus musculus [7]): 14
- Cured/treated (Mus musculus [8]): 0
- Cured/treated (Mus musculus [9]): 11
- Cured/treated (Mus musculus [10]): 30
- Cured/treated (Mus musculus [11]): 8
- Cured/treated (Mus musculus [12]): 0
- Cured/treated (Mus musculus [13]): 4
- Cured/treated (Mus musculus [14]): 10
- Cured/treated (Mus musculus [15]): 19

Compound: C[C@H]1[C@H](OC[C@]2(C)OC3OC4(C)CCC5[C@@H](C)CCC2[C@]35OO4)O[C@@H]2OC3(C)CCC4[C@H](C)CC[C@@H]1[C@]42OO3 (single isomer, unassigned)
- Cured/treated (Mus musculus [16]): 6
- Cured/treated (Mus musculus [17]): 3
- Cured/treated (Mus musculus [18]): 6
- Cured/treated (Mus musculus [19]): 6
- Cured/treated (Mus musculus [20]): 6
- Cured/treated (Mus musculus [21]): 2

Compound: CCO[C@H]1O[C@@H]2O[C@@]3(C)CC[C@H]4[C@H](C)CC[C@@H]([C@H]1C)[C@@]24OO3 [ARTEMOTIL]
- Cured/treated (Mus musculus [22]): 34
- Cured/treated (Mus musculus [23]): 36
- Cured/treated (Mus musculus [24]): 23
- Cured/treated (Mus musculus [25]): 7
- Cured/treated (Mus musculus [26]): 16
